Source: US8324258B2, “F1F0-ATPase inhibitors and related methods” (The Regents of the University of Michigan, priority 2007, dated 2012)

Columns and labels:
Ramos cells = assay: Cytotoxicity (cell death) in Ramos cells; assay type: cell-based
Method: (§1) The compounds listed in Table 9 were tested for activity against F1F0-ATPase by measuring ATP synthesis and ATP hydrolysis. In addition, the compounds were assessed for cytotoxicity in Ramos cells Inhibition of ATP synthesis and hydrolysis by the F1F0-ATPase and cytotoxicity in Ramos cells was measured as described in K. M. Johnson et al. Chemistry & Biology 2005, 12, 485-496.

F1F0-ATPase [1] = molecular target: T1, F1F0-ATPase (Bos taurus, UniProt P13621); assay: Inhibition of ATP synthesis by the F1F0-ATPase; assay type: biochemical; conditions: for ATP Synthesis (IC40 μM): IC40: concentration for 40% inhibition
Method: as §1

F1F0-ATPase [2] = molecular target: T1, F1F0-ATPase; assay: Inhibition of ATP hydrolysis by the F1F0-ATPase; assay type: biochemical; conditions: for ATP Hydrolysis (IC40 μM): IC40: concentration for 40% inhibition
Method: as §1

| Structure (SMILES) | EC50 (Ramos cells; Ramos cells) | ATP Synthesis (IC40 μM) (F1F0-ATPase [1]) | ATP Hydrolysis (IC40 μM) (F1F0-ATPase [2]) | EC50 (Ramos cells; Homo sapiens, Ramos) | Ramos cell death (relative to Bz-423) (Ramos cells; Ramos cells, multiple of Bz-423) | syn (relative to Bz-423) (F1F0-ATPase [1]; ATP synthesis, multiple of Bz-423) | hydro (relative to Bz-423) (F1F0-ATPase [2]; ATP hydrolysis, multiple of Bz-423) |
| --- | --- | --- | --- | --- | --- | --- | --- |
| O=C(N=C(NCCc1c[nH]cn1)Nc1cccc(-c2ccccc2)c1)c1ccc(Cl)cc1 [VI-14, (Z/E)-N-((2-(1H-imidazol-4-yl)ethylamino)(biphenyl-3-ylamino)methylene)-4-chlorobenzamide] | > 10 µM | <10 µM | >10 µM |  |  |  |  |
| O=C(N=C(NCCc1c[nH]cn1)Nc1ccc(-c2ccccc2)cc1)c1ccc(Cl)cc1 [II-1, (Z/E)-N-((2-(1H-imidazol-4-yl)ethylamino)(biphenyl-4-ylamino)methylene)-4-chlorobenzamide] | > 30 µM | >10 µM | >10 µM |  |  |  |  |
| O=C(N=C(NCCc1c[nH]cn1)Nc1ccc(-c2ccccc2)cc1)c1cccc(Cl)c1 [III-7, (Z/E)-N-((2-(1H-imidazol-4-yl)ethylamino)(biphenyl-4-ylamino)methylene)-3-chlorobenzamide] | < 10 µM | <10 µM | >10 µM |  |  |  |  |
| COc1ccc(NC(=NC(=O)c2cccc(Cl)c2)NCCc2c[nH]cn2)cc1 [III-13, (Z/E)-N-((2-(1H-imidazol-4-yl)ethylamino)(4-methoxyphenylamino)methylene)-3-chlorobenzamide] | > 30 µM | >10 µM | >30 µM |  |  |  |  |
| O=C(N=C(NCCc1c[nH]cn1)Nc1ccccc1Cl)c1cccc(Cl)c1 [III-17, (Z/E)-N-((2-(1H-imidazol-4-yl)ethylamino)(2-chlorophenylamino)methylene)-3-chlorobenzamide] | > 30 µM | >10 µM | >20 µM |  |  |  |  |
| O=C(N=C(NCCc1c[nH]cn1)Nc1ccc(-c2ccccc2)cc1)c1ccc(Br)cc1 [II-11, (Z/E)-N-((2-(1H-imidazol-4-yl)ethylamino)(biphenyl-4-ylamino)methylene)-4-bromobenzamide] | > 30 µM | >10 µM | >20 µM |  |  |  |  |
| O=C(/N=C(\Nc1ccc(-c2ccccc2)cc1)Nc1cccc2[nH]ccc12)c1cccc(Cl)c1 [IV-1, (Z/E)-N-((1H-indol-4-ylamino)(biphenyl-4-ylamino)methylene)-3-chlorobenzamide] |  | >10 µM | >30 µM | > 10 µM |  |  |  |
| O=C(N=C(NCCc1c[nH]cn1)Nc1ccc(-c2ccccc2)cc1)c1ccc([N+](=O)[O-])cc1 [II-13, (Z/E)-N-((2-(1H-imidazol-4-yl)ethylamino)(biphenyl-4-ylamino)methylene)-4-nitrobenzamide] | > 30 µM | >20 µM | >30 µM |  |  |  |  |
| O=C(/N=C(\Nc1ccc(-c2ccccc2)cc1)Nc1ccc2[nH]ccc2c1)c1cccc(Cl)c1 [IV-8, (Z/E)-N-((1H-indol-5-ylamino)(biphenyl-4-ylamino)methylene)-3-chlorobenzamide] |  | >10 µM | >30 µM | < 10 µM |  |  |  |
| O=C(N=C(NCCc1c[nH]cn1)Nc1cccc(-c2ccccc2)c1)c1ccc(Br)cc1 [VI-11, (Z/E)-N-((2-(1H-imidazol-4-yl)ethylamino)(biphenyl-3-ylamino)methylene)-4-bromobenzamide] | < 10 µM | <10 µM | >10 µM |  |  |  |  |
| CCc1cccc(CC)c1NC(=NC(=O)c1cccc(Cl)c1)NCCc1c[nH]cn1 [III-44, (Z/E)-N-((2-(1H-imidazol-4-yl)ethylamino)(2,6-diethylphenylamino)methylene)-3-chlorobenzamide] |  |  |  |  | 2.5 ×Bz-423 | 0.7 ×Bz-423 | 0.8 ×Bz-423 |
| O=C(N=C(NCCc1c[nH]cn1)Nc1ccc(C(F)(F)F)cc1)c1cccc(Cl)c1 [III-25, (Z/E)-N-((2-(1H-imidazol-4-yl)ethylamino)(4-(trifluoromethyl)phenylamino)methylene)-3-chlorobenzamide] | > 10 µM | >10 µM | <10 µM |  |  |  |  |
| O=C(/N=C(/NCCn1ccnc1)Nc1ccc(-c2ccccc2)cc1)c1cccc(Cl)c1 [IV-2, (Z/E)-N-((2-(1H-imidazol-1-yl)ethylamino)(biphenyl-4-ylamino)methylene)-3-chlorobenzamide] |  | <10 µM | >10 µM | > 10 µM |  |  |  |
| CCc1cccc(NC(=NC(=O)c2cccc(Cl)c2)NCCc2c[nH]cn2)c1 [III-42] | > 20 µM | <10 µM | >20 µM |  |  |  |  |
| N#Cc1cccc(C(=O)N=C(NCCc2c[nH]cn2)Nc2cccc(-c3ccccc3)c2)c1 [VI-5, (Z/E)-N-((2-(1H-imidazol-4-yl)ethylamino)(biphenyl-3-ylamino)methylene)-3-cyanobenzamide] | > 10 µM | >10 µM | >30 µM |  |  |  |  |
| O=C(N=C(NCCc1c[nH]cn1)Nc1cccc(-c2ccccc2)c1)c1cccc(C(F)(F)F)c1 [VI-3, (Z/E)-N-((2-(1H-imidazol-4-yl)ethylamino)(biphenyl-3-ylamino)methylene)-3-(trifluoromethyl)benzamide] | < 10 µM | <10 µM | >10 µM |  |  |  |  |
| O=C(N=C(NCCc1c[nH]cn1)Nc1cccc(-c2ccccc2)c1)c1ccc(C(F)(F)F)cc1 [VI-4, (Z/E)-N-((2-(1H-imidazol-4-yl)ethylamino)(biphenyl-3-ylamino)methylene)-4-(trifluoromethyl)benzamide] | > 10 µM | <10 µM | >10 µM |  |  |  |  |
| O=C(N=C(NCCc1c[nH]cn1)Nc1ccccc1Br)c1cccc(Cl)c1 [III-2, (Z/E)-N-((2-(1H-imidazol-4-yl)ethylamino)(2-bromophenylamino)methylene)-3-chlorobenzamide] | > 20 µM | <10 µM | >20 µM |  |  |  |  |
| O=C(N=C(NCCc1c[nH]cn1)Nc1ccccc1F)c1cccc(Cl)c1 [III-14, (Z/E)-N-((2-(1H-imidazol-4-yl)ethylamino)(2-fluorophenylamino)methylene)-3-chlorobenzamide] | > 30 µM | >20 µM | >30 µM |  |  |  |  |
| O=C(/N=C(/NCCc1nc[nH]n1)Nc1ccc(-c2ccccc2)cc1)c1cccc(Cl)c1 [IV-3, (Z/E)-N-((2-(1H-1,2,4-triazol-3-yl)ethylamino)(biphenyl-4-ylamino)methylene)-3-chlorobenzamide] |  | <10 µM | <10 µM | > 10 µM |  |  |  |
| Cc1ccc(C(=O)N=C(NCCc2c[nH]cn2)Nc2ccccc2-c2ccccc2)cc1 [Compound I-5, (E/Z)—N-((2-(1H-imidazol-4-yl)ethylamino)(biphenyl-2-ylamino)methylene)-4-methylbenzamide] | > 20 µM | >10 µM | >10 µM |  |  |  |  |
| O=C(N=C(NCCc1c[nH]cn1)Nc1cccc(Br)c1)c1cccc(Cl)c1 [III-3, (Z/E)-N-((2-(1H-imidazol-4-yl)ethylamino)(3-bromophenylamino)methylene)-3-chlorobenzamide] | > 10 µM | <10 µM | >10 µM |  |  |  |  |
| CS(=O)(=O)c1cccc(NC(=NC(=O)c2cccc(Cl)c2)NCCc2cnc[nH]2)c1 [III-37, (Z/E)-N-((2-(1H-imidazol-5-yl)ethylamino)(3-(methylsulfonyl)phenylamino)methylene)-3-chlorobenzamide] | > 30 µM | >20 µM | >30 µM |  |  |  |  |
| N#Cc1cccc(-c2ccc(NC(=NC(=O)c3cccc(Cl)c3)NCCc3c[nH]cn3)cc2)c1 [III-45, (Z/E)-N-((2-(1H-imidazol-4-yl)ethylamino)(3′-cyanobiphenyl-4-ylamino)methylene)-3-chlorobenzamide] | < 10 µM | <10 µM | >30 µM |  |  |  |  |
| N#Cc1ccc(-c2ccc(NC(=NC(=O)c3cccc(Cl)c3)NCCc3c[nH]cn3)cc2)cc1 [III-21, (Z/E)-N-((2-(1H-imidazol-4-yl)ethylamino)(4′-cyanobiphenyl-4-ylamino)methylene)-3-chlorobenzamide] | < 10 µM | <10 µM | >30 µM |  |  |  |  |
| O=C(N=C(NCCc1c[nH]cn1)Nc1ccc(-c2ccccc2)cc1)c1ccc(Cl)c(Cl)c1 [II-16, (Z/E)-N-((2-(1H-imidazol-4-yl)ethylamino)(biphenyl-4-ylamino)methylene)-3,4-dichlorobenzamide] | < 10 µM | <10 µM | <10 µM |  |  |  |  |
| Cc1ccc(C(=O)N=C(NCCc2c[nH]cn2)Nc2cccc(-c3ccccc3)c2)cc1 [VI-1, (Z/E)-N-((2-(1H-imidazol-4-yl)ethylamino)(biphenyl-3-ylamino)methylene)-4-methylbenzamide] | > 10 µM | <10 µM | >10 µM |  |  |  |  |
| O=C(N=C(NCCc1c[nH]cn1)Nc1ccc(-c2ccccc2)cc1)c1cccc(Br)c1 [II-10, (Z/E)-N-((2-(1H-imidazol-4-yl)ethylamino)(biphenyl-4-ylamino)methylene)-3-bromobenzamide] | < 10 µM | >10 µM | >10 µM |  |  |  |  |
| O=C(N=C(NCCc1c[nH]cn1)Nc1cccc(-c2ccccc2)c1)c1ccc([N+](=O)[O-])cc1 [VI-13, (Z/E)-N-((2-(1H-imidazol-4-yl)ethylamino)-(biphenyl-3-ylamino)methylene)-4-nitrobenzamide] | < 10 µM | <10 µM | >30 µM |  |  |  |  |
